In ChEMBL document CHEMBL1201862, “PubChem BioAssay data set” (2004):
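Step 1: Grow cells in 96-well plates. Step 2: Expose to compound for 48 hours at 5 concentrations. Step 3: Interpolate endpoints linearly; if unreached, use highest concentration. Here, GI50 denotes the concentration required for 50% inhibition of growth.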 The source made the active and inactive calls. Rule as the data show it: active = GI50 up to about 1.1 µM and inactive = higher.

Key:
Assay in all cases: NCI tumour cell line growth inhibition, 48 h
M14 = tested on: M14
A549 = tested on: A549
HL-60 = tested on: HL-60
SF-295 = tested on: SF-295
DU-145 = tested on: DU-145
CAKI-1 = tested on: CAKI-1
KM12 = tested on: KM12
HT-29 = tested on: HT-29
MDA-MB-435 = tested on: MDA-MB-435
Hs-578T = tested on: Hs-578T
ACHN = tested on: ACHN
NCI/ADR-RES = tested on: NCI/ADR-RES
RXF 393 = tested on: RXF 393
A498 = tested on: A498
COLO 205 = tested on: COLO 205
SF-268 = tested on: SF-268
OVCAR-4 = tested on: OVCAR-4
LOX IMVI = tested on: LOX IMVI
UACC-62 = tested on: UACC-62
SN12C = tested on: SN12C
HOP-92 = tested on: HOP-92
SK-MEL-5 = tested on: SK-MEL-5
HCC 2998 = tested on: HCC 2998
NCI-H522 = tested on: NCI-H522
SW-620 = tested on: SW-620
MDA-MB-231 = tested on: MDA-MB-231
EKVX = tested on: EKVX
NCI-H226 = tested on: NCI-H226
HOP-62 = tested on: HOP-62
OVCAR-8 = tested on: OVCAR-8
786-0 = tested on: 786-0
MOLT-4 = tested on: MOLT-4
CCRF-CEM = tested on: CCRF-CEM
U-251 = tested on: U-251
NCI-H23 = tested on: NCI-H23
OVCAR-3 = tested on: OVCAR-3
MCF7 = tested on: MCF7
TK-10 = tested on: TK-10
MDA-N = tested on: MDA-N
SK-MEL-28 = tested on: SK-MEL-28
SK-MEL-2 = tested on: SK-MEL-2
UACC-257 = tested on: UACC-257
IGROV-1 = tested on: IGROV-1
OVCAR-5 = tested on: OVCAR-5
K562 = tested on: K562
RPMI-8226 = tested on: RPMI-8226
HCT-15 = tested on: HCT-15
SR = tested on: SR
SNB-75 = tested on: SNB-75
SF-539 = tested on: SF-539
SNB-19 = tested on: SNB-19
SK-OV-3 = tested on: SK-OV-3
Malme-3M = tested on: Malme-3M
HCT-116 = tested on: HCT-116
PC-3 = tested on: PC-3
T47D = tested on: T47D
UO-31 = tested on: UO-31
BT-549 = tested on: BT-549
NCI-H460 = tested on: NCI-H460

COC(=O)[C@H](Cc1ccccc1)NC(=O)c1ccc(CNC(=O)/C=C/c2csc(-c3ccccc3)n2)cc1
GI50 (M14): 1.84 µM (inactive)
GI50 (A549): 16.1 µM (inactive)
GI50 (HL-60): 0.275 µM (active)
GI50 (SF-295): 7.28 µM (inactive)
GI50 (DU-145): 7.03 µM (inactive)
GI50 (CAKI-1): 7.82 µM (inactive)
GI50 (KM12): 7.87 µM (inactive)
GI50 (HT-29): 7.38 µM (inactive)
GI50 (MDA-MB-435): 2.83 µM (inactive)
GI50 (Hs-578T): 3.21 µM (inactive)
GI50 (ACHN): 8.28 µM (inactive)
GI50 (NCI/ADR-RES): 21.2 µM (inactive)
GI50 (RXF 393): 8.02 µM (inactive)
GI50 (A498): 16.1 µM (inactive)
GI50 (COLO 205): 7.13 µM (inactive)
GI50 (SF-268): 7.6 µM (inactive)
GI50 (OVCAR-4): 24 µM (inactive)
GI50 (LOX IMVI): 4.91 µM (inactive)
GI50 (UACC-62): 14.6 µM (inactive)
GI50 (SN12C): 8.91 µM (inactive)
GI50 (HOP-92): 3.88 µM (inactive)
GI50 (SK-MEL-5): 4.22 µM (inactive)
GI50 (HCC 2998): 3.91 µM (inactive)
GI50 (NCI-H522): 3.24 µM (inactive)
GI50 (SW-620): 7.33 µM (inactive)
GI50 (MDA-MB-231): 10.9 µM (inactive)
GI50 (EKVX): 15.2 µM (inactive)
GI50 (NCI-H226): 46 µM (inactive)
GI50 (HOP-62): 15.3 µM (inactive)
GI50 (OVCAR-8): 11.1 µM (inactive)
GI50 (786-0): 4.88 µM (inactive)
GI50 (MOLT-4): 1.75 µM (inactive)
GI50 (CCRF-CEM): 3.89 µM (inactive)
GI50 (U-251): 8.11 µM (inactive)
GI50 (NCI-H23): 13.8 µM (inactive)
GI50 (OVCAR-3): 5.33 µM (inactive)
GI50 (MCF7): 4.5 µM (inactive)
GI50 (TK-10): 19.3 µM (inactive)
GI50 (MDA-N): 4.45 µM (inactive)
GI50 (SK-MEL-28): 3.18 µM (inactive)
GI50 (SK-MEL-2): 2.81 µM (inactive)
GI50 (UACC-257): 1.93 µM (inactive)
GI50 (IGROV-1): 3.46 µM (inactive)
GI50 (OVCAR-5): 38.5 µM (inactive)
GI50 (K562): 1.93 µM (inactive)
GI50 (RPMI-8226): 7.74 µM (inactive)
GI50 (HCT-15): 7.35 µM
GI50 (SR): 1.11 µM (active)
GI50 (SNB-75): 11 µM (inactive)
GI50 (SF-539): 2.04 µM (inactive)
GI50 (SNB-19): 11.8 µM (inactive)
GI50 (SK-OV-3): 23.7 µM (inactive)
GI50 (Malme-3M): 3.24 µM (inactive)
GI50 (HCT-116): 5.04 µM (inactive)
GI50 (PC-3): 6.87 µM (inactive)
GI50 (T47D): 2.72 µM (inactive)
GI50 (UO-31): 8.2 µM (inactive)
GI50 (BT-549): 29.9 µM (inactive)
GI50 (NCI-H460): 11.8 µM (inactive)

Cc1ccc(S(=O)(=O)N/C(=N\O)Nc2ccc(Cl)c(Cl)c2)cc1
GI50 (M14): 5.58 µM (inactive)
GI50 (A549): 13.3 µM (inactive)
GI50 (HL-60): 1.87 µM (inactive)
GI50 (SF-295): 17.2 µM (inactive)
GI50 (DU-145): 12 µM (inactive)
GI50 (CAKI-1): 5.41 µM (inactive)
GI50 (KM12): 11.2 µM (inactive)
GI50 (HT-29): 12.8 µM (inactive)
GI50 (MDA-MB-435): 3.48 µM (inactive)
GI50 (Hs-578T): 3.73 µM (inactive)
GI50 (ACHN): 11.9 µM (inactive)
GI50 (NCI/ADR-RES): 12.8 µM (inactive)
GI50 (RXF 393): 9.84 µM (inactive)
GI50 (A498): 10.3 µM (inactive)
GI50 (COLO 205): 17.1 µM (inactive)
GI50 (SF-268): 6.01 µM (inactive)
GI50 (OVCAR-4): 6.46 µM (inactive)
GI50 (LOX IMVI): 4.11 µM (inactive)
GI50 (UACC-62): 11.7 µM (inactive)
GI50 (SN12C): 2.12 µM (inactive)
GI50 (HOP-92): 3.05 µM (inactive)
GI50 (SK-MEL-5): 2.05 µM (inactive)
GI50 (HCC 2998): 2.14 µM (inactive)
GI50 (NCI-H522): 4.47 µM (inactive)
GI50 (SW-620): 11.2 µM (inactive)
GI50 (MDA-MB-231): 9.98 µM (inactive)
GI50 (EKVX): 5.92 µM (inactive)
GI50 (NCI-H226): 17.1 µM (inactive)
GI50 (HOP-62): 14.1 µM (inactive)
GI50 (OVCAR-8): 8.04 µM (inactive)
GI50 (786-0): 4.6 µM (inactive)
GI50 (MOLT-4): 1.98 µM (inactive)
GI50 (CCRF-CEM): 2.42 µM (inactive)
GI50 (U-251): 4.36 µM (inactive)
GI50 (NCI-H23): 15.7 µM (inactive)
GI50 (OVCAR-3): 4.41 µM (inactive)
GI50 (MCF7): 17.5 µM (inactive)
GI50 (TK-10): 14.6 µM (inactive)
GI50 (MDA-N): 3.57 µM (inactive)
GI50 (SK-MEL-28): 3.34 µM (inactive)
GI50 (SK-MEL-2): 10.2 µM (inactive)
GI50 (UACC-257): 4.68 µM (inactive)
GI50 (IGROV-1): 13.9 µM (inactive)
GI50 (OVCAR-5): 3.2 µM (inactive)
GI50 (K562): 13 µM (inactive)
GI50 (RPMI-8226): 10.1 µM (inactive)
GI50 (HCT-15): 6.67 µM
GI50 (SR): 5.69 µM (inactive)
GI50 (SNB-75): 5.14 µM (inactive)
GI50 (SF-539): 12.1 µM (inactive)
GI50 (SNB-19): 7.4 µM (inactive)
GI50 (SK-OV-3): 15 µM (inactive)
GI50 (Malme-3M): 2.07 µM (inactive)
GI50 (HCT-116): 5.31 µM (inactive)
GI50 (PC-3): 5.48 µM (inactive)
GI50 (T47D): 11.4 µM (inactive)
GI50 (UO-31): 5.02 µM (inactive)
GI50 (BT-549): 9.64 µM (inactive)
GI50 (NCI-H460): 9.95 µM (inactive)

Nc1ccc2c(=S)c3ccccc3[nH]c2c1
GI50 (M14): 20.2 µM (inactive)
GI50 (A549): 23.3 µM (inactive)
GI50 (HL-60): 16.2 µM (inactive)
GI50 (SF-295): 26.4 µM (inactive)
GI50 (DU-145): > 72.1 µM (inactive)
GI50 (CAKI-1): 9.23 µM (inactive)
GI50 (KM12): 44.4 µM (inactive)
GI50 (HT-29): 19.3 µM (inactive)
GI50 (MDA-MB-435): 42.2 µM (inactive)
GI50 (Hs-578T): 55.6 µM (inactive)
GI50 (ACHN): 38.1 µM (inactive)
GI50 (NCI/ADR-RES): 43.3 µM (inactive)
GI50 (RXF 393): 39.6 µM (inactive)
GI50 (A498): 61.7 µM (inactive)
GI50 (COLO 205): 24.5 µM (inactive)
GI50 (SF-268): 65.9 µM (inactive)
GI50 (OVCAR-4): 62.8 µM (inactive)
GI50 (LOX IMVI): 26.4 µM (inactive)
GI50 (UACC-62): 31.7 µM (inactive)
GI50 (SN12C): > 77.6 µM (inactive)
GI50 (HOP-92): 26.2 µM (inactive)
GI50 (SK-MEL-5): 33.5 µM (inactive)
GI50 (HCC 2998): 53.5 µM (inactive)
GI50 (NCI-H522): 46.8 µM (inactive)
GI50 (SW-620): 32.5 µM (inactive)
GI50 (MDA-MB-231): 28.2 µM (inactive)
GI50 (EKVX): 36.5 µM (inactive)
GI50 (NCI-H226): 24.1 µM (inactive)
GI50 (HOP-62): 24.3 µM (inactive)
GI50 (OVCAR-8): 52.5 µM (inactive)
GI50 (786-0): 38.5 µM (inactive)
GI50 (MOLT-4): 18.7 µM (inactive)
GI50 (CCRF-CEM): 18.8 µM (inactive)
GI50 (U-251): 28.4 µM (inactive)
GI50 (NCI-H23): 22.9 µM (inactive)
GI50 (OVCAR-3): 28.2 µM (inactive)
GI50 (MCF7): 20.1 µM (inactive)
GI50 (TK-10): > 53.6 µM (inactive)
GI50 (MDA-N): 46.8 µM (inactive)
GI50 (SK-MEL-28): 43.1 µM (inactive)
GI50 (SK-MEL-2): 51.9 µM (inactive)
GI50 (UACC-257): 44.5 µM (inactive)
GI50 (IGROV-1): 28 µM (inactive)
GI50 (OVCAR-5): > 61.2 µM (inactive)
GI50 (K562): 16.1 µM (inactive)
GI50 (RPMI-8226): 13.8 µM (inactive)
GI50 (HCT-15): 24.2 µM
GI50 (SR): 25.1 µM (inactive)
GI50 (SNB-75): 18.7 µM (inactive)
GI50 (SF-539): 33.2 µM (inactive)
GI50 (SNB-19): 41.6 µM (inactive)
GI50 (SK-OV-3): 22.2 µM (inactive)
GI50 (Malme-3M): 40.3 µM (inactive)
GI50 (HCT-116): 24.3 µM (inactive)
GI50 (PC-3): 34 µM (inactive)
GI50 (T47D): 20.1 µM (inactive)
GI50 (UO-31): 27.9 µM (inactive)
GI50 (BT-549): 48.4 µM (inactive)
GI50 (NCI-H460): 27.4 µM (inactive)
